This note sets out measurements from paper PMC7363723, “Fungal Kti12 proteins display unusual linker regions and unique ATPase p-loops” (Current Genetics, 2020).

What all share (type): binding
The target of experiment [1] is T1, CtKti12 (Thermochaetoides thermophila, UniProt G0SHI1).
T1 construct: gene CTHT_0070100; full-length, codon-optimized ORF in pET24d (NcoI/XhoI), purified from bacteria; PDB 6QP0 (earlier work) covers the ATPase domain only
T1 sequence (G0SHI1 1-378): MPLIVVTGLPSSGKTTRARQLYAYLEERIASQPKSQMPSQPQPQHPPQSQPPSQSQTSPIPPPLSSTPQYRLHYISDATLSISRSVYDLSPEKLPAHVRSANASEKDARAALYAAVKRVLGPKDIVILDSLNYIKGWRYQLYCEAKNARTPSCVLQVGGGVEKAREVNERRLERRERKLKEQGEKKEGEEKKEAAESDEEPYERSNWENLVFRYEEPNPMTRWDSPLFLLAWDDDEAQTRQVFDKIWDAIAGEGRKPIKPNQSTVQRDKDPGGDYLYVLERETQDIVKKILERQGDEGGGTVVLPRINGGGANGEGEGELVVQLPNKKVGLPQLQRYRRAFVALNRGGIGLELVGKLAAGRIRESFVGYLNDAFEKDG
The experiment in a line: thermal shift assay (SYPRO Orange). The following applies: 1 mM ATP, 2 mM MgCl2, 20 mM Tris-HCl pH 7.5, 150 mM NaCl, 2 mM DTT; 0.6 °C/min.

Experiment [2] addresses T2, CtKti12 (Thermochaetoides thermophila, UniProt G0SHI1, K14A).
T2 construct: gene CTHT_0070100; full-length, codon-optimized ORF in pET24d (NcoI/XhoI), purified from bacteria; PDB 6QP0 (earlier work) covers the ATPase domain only
In words: fluorescence polarization, one-site fit. On the technique in general: In fluorescence polarisation assays a small probe gives low polarisation when free and higher when bound to something large.

The target of experiment [3] is T1, CtKti12. In words: fluorescence polarization, one-site fit.
In experiment [4] the target is T3, CtKti12 (Thermochaetoides thermophila, UniProt G0SHI1, K14V).
T3 construct: gene CTHT_0070100; full-length, codon-optimized ORF in pET24d (NcoI/XhoI), purified from bacteria; PDB 6QP0 (earlier work) covers the ATPase domain only
In words: fluorescence polarization, one-site fit.

For experiment [5], the target named is T4, CtKti12 (Thermochaetoides thermophila, UniProt G0SHI1, K14L).
T4 construct: gene CTHT_0070100; full-length, codon-optimized ORF in pET24d (NcoI/XhoI), purified from bacteria; PDB 6QP0 (earlier work) covers the ATPase domain only
In words: fluorescence polarization, one-site fit.

T3 sequence (G0SHI1 entry or part of it K14V): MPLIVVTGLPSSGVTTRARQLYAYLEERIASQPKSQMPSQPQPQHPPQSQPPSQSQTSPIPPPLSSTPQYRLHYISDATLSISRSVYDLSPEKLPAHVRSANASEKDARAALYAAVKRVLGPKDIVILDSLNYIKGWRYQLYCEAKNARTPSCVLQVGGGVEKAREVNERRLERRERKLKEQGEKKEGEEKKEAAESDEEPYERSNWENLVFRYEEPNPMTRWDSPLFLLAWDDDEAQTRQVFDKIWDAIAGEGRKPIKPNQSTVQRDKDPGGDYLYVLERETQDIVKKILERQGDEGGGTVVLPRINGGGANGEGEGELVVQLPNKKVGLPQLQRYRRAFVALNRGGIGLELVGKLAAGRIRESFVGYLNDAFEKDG
T4 sequence (G0SHI1 entry or part of it K14L): as the sequence (G0SHI1 entry or part of it K14V) above, with V14L counted along it
T2 sequence (G0SHI1 entry or part of it K14A): as the sequence (G0SHI1 entry or part of it K14V) above, with V14A counted along it

`Nc1ncnc2c1ncn2[C@@H]1O[C@H](COP(=O)(O)OP(=O)(O)OP(=O)(O)O)[C@@H](O)[C@H]1O` [ATP]: the “melting point without ATP to with ATP” value in experiment [1] lay within 46.0 to 50.0 °C.
With `CNc1ccccc1C(=O)O[C@H]1[C@@H](O)[C@H](n2cnc3c(N)ncnc32)O[C@@H]1CO[P@@](=O)(O)O[P@](=O)(O)OP(=O)(O)O` [MANT-ATP], the Kd was over 100 µM in experiment [2], 1.5 ± 0.2 µM in experiment [3], over 100 µM in experiment [4] and 25 ± 2.4 µM in experiment [5].

Usually Kd stands for the concentration at which binding is half-saturated. Read a high Kd as lower affinity.
